One compound from patent publication US11358949B2, “Carbamate and urea compounds as multikinase inhibitors” (ANGEX PHARMACEUTICAL, INC., priority 2017, dated 2022) can be followed below.

The target in one assay is T1, AXL (Homo sapiens, UniProt P30530).
T1 sequence (P30530 26-894): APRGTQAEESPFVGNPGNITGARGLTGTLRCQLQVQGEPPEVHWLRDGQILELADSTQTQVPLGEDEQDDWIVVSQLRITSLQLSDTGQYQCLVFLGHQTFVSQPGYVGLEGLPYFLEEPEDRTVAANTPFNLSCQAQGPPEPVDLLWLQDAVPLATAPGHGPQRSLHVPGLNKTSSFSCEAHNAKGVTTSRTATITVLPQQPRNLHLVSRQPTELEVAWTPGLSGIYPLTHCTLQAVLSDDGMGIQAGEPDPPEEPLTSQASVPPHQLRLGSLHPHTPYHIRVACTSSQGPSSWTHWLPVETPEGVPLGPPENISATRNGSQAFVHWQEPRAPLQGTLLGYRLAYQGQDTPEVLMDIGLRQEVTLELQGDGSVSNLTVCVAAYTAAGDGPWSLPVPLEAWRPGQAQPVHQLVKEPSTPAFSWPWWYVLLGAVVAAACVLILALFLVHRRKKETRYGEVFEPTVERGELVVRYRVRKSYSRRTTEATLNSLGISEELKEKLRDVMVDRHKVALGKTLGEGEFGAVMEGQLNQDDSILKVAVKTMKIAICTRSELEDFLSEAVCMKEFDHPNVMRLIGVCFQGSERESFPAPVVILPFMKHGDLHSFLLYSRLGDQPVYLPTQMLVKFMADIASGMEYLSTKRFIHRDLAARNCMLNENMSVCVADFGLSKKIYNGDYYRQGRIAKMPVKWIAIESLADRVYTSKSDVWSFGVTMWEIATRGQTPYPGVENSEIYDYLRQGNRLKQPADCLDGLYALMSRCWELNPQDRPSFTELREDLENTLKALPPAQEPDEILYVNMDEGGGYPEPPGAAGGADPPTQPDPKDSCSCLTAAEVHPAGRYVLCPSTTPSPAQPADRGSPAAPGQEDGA
Briefly: HotSpot Kinase Assay, AXL.

The target in another assay is BRK (Homo sapiens, UniProt Q13882). Briefly: HotSpot Kinase Assay, BRK.
Chain of BRK (Q13882 whole entry): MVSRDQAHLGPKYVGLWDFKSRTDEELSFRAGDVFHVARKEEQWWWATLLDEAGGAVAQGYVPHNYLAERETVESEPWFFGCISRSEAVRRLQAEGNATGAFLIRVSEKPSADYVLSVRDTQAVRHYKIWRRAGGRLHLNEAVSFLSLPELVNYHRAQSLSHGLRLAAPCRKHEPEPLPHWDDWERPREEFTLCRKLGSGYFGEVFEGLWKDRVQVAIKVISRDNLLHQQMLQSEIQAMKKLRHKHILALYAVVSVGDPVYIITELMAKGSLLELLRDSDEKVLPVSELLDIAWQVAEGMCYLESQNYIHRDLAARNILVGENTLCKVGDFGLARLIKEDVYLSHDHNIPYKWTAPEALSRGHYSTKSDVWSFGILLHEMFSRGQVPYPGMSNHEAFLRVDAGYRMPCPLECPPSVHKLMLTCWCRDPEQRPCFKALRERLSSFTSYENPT
In the next assay the target is HPK4 (Homo sapiens, UniProt Q8NE63). Briefly: HotSpot Kinase Assay, HPK4.
Chain of HPK4 (Q8NE63 whole entry): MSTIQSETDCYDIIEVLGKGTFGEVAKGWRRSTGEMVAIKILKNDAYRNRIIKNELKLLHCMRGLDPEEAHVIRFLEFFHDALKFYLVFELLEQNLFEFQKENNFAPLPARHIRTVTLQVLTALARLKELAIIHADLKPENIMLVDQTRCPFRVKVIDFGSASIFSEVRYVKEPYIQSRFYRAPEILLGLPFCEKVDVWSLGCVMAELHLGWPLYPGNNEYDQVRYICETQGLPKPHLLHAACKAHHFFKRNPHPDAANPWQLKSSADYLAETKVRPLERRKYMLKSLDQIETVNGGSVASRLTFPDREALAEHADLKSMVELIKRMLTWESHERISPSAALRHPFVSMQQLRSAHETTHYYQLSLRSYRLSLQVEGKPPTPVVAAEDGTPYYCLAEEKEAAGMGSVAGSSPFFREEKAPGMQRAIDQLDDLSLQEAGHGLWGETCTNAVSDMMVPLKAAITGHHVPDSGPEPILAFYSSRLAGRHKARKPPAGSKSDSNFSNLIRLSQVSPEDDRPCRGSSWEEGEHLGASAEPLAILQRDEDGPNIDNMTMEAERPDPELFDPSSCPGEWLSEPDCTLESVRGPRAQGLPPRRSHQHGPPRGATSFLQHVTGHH
For the next assay, the target named is TRKA (Homo sapiens, UniProt P04629). Briefly: HotSpot Kinase Assay, TRKA.
Chain of TRKA (P04629 33-796): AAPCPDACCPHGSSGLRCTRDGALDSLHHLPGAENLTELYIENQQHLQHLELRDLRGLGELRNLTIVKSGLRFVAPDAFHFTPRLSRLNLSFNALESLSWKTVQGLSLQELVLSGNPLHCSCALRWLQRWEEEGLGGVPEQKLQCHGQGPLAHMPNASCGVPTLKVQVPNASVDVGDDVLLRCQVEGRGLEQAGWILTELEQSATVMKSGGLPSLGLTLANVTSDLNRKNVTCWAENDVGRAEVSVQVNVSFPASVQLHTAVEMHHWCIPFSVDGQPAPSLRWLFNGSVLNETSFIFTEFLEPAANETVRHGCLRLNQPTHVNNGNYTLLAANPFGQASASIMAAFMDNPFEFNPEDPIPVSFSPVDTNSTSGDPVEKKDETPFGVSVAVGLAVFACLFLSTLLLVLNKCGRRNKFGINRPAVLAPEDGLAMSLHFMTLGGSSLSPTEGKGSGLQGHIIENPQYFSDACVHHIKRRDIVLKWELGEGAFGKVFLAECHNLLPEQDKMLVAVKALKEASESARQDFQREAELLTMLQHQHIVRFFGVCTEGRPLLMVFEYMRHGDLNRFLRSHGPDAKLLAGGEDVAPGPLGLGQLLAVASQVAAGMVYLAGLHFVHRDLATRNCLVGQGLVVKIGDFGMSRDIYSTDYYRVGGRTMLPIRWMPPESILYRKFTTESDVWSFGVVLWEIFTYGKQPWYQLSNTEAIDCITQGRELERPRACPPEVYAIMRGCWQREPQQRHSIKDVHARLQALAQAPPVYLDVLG
A further assay deals with FLT1 (Homo sapiens, UniProt P17948). The experiment in a line: HotSpot Kinase Assay, FLT1.
The next assay concerns the target FLT4 (Homo sapiens, UniProt P35916). Briefly: HotSpot Kinase Assay, FLT4.
For the next assay, the target named is c-MET (Homo sapiens, UniProt P08581). Briefly: HotSpot Kinase Assay, c-MET.
The target in the next assay is EPHA3 (Homo sapiens, UniProt P29320). The experiment in a line: HotSpot Kinase Assay, EPHA3.
For another assay, the target named is EPHB2 (Homo sapiens, UniProt P29323). Briefly: HotSpot Kinase Assay, EPHB2.
In another assay the target is EPHA4 (Homo sapiens, UniProt P54764). The experiment in a line: HotSpot Kinase Assay, EPHA4.
Chain of EPHA4 (P54764 20-986): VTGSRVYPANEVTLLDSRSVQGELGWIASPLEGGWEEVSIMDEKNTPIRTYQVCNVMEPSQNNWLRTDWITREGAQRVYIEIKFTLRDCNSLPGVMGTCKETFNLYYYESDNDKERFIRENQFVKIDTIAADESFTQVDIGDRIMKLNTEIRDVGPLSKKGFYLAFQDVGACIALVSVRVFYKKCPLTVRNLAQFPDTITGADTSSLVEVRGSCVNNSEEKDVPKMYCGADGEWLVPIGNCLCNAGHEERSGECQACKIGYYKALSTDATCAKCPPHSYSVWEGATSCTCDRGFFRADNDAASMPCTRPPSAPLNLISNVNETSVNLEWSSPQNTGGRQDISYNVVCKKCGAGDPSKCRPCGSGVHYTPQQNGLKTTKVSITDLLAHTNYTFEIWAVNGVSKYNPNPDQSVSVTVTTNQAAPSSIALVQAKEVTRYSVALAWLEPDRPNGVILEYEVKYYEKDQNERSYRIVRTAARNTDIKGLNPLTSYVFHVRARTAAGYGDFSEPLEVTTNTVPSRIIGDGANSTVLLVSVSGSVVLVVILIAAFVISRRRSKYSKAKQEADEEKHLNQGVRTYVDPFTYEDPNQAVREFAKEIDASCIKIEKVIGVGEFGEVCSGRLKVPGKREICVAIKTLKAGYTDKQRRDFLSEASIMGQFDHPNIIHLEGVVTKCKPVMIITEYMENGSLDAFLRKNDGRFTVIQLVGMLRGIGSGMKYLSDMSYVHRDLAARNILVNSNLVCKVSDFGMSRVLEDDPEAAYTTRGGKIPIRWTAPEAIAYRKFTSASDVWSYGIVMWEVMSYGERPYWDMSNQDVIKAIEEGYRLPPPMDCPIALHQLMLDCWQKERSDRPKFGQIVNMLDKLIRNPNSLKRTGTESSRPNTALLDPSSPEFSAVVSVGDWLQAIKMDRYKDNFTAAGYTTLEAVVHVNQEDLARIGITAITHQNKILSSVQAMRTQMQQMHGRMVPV
A further assay concerns the target EPHB1 (Homo sapiens, UniProt P54762). Briefly: HotSpot Kinase Assay, EPHB1.
For a further assay, the target named is TIE2/TEK (Homo sapiens, UniProt Q02763). Briefly: HotSpot Kinase Assay, TIE2/TEK.
Chain of TIE2/TEK (Q02763 23-1124): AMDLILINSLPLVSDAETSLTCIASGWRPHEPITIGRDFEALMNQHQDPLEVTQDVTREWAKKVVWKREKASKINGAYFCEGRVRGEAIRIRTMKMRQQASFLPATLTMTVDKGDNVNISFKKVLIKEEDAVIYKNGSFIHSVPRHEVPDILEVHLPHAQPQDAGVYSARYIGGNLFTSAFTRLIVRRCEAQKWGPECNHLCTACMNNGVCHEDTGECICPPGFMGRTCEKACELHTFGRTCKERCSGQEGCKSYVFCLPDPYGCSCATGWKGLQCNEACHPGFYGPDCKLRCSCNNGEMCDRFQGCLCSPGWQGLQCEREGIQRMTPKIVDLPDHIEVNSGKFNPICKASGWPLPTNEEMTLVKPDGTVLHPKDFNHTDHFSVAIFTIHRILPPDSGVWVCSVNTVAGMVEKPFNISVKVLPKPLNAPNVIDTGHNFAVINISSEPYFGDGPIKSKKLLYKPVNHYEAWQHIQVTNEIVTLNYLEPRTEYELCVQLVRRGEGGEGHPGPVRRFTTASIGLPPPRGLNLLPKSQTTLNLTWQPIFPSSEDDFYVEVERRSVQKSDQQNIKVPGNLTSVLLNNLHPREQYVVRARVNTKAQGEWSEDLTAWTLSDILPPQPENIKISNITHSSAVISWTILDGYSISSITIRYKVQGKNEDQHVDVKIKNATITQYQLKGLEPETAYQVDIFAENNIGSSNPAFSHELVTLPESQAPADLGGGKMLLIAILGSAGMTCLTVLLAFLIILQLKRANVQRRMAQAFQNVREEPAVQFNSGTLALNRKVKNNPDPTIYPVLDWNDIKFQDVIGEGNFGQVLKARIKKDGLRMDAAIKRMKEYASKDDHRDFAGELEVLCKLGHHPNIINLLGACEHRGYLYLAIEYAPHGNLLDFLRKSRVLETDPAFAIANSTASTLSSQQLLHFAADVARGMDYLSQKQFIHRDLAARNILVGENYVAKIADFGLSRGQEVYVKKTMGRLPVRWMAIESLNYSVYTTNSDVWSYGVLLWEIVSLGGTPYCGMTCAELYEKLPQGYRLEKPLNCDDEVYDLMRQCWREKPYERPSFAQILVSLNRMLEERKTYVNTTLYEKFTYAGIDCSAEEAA
Another assay concerns the target PLK4/SAK (Homo sapiens, UniProt O00444). Briefly: HotSpot Kinase Assay, PLK4/SAK.
The target of the next assay is T2, TYRO3/SKY (Homo sapiens, UniProt Q06418).
T2 sequence (Q06418 41-890): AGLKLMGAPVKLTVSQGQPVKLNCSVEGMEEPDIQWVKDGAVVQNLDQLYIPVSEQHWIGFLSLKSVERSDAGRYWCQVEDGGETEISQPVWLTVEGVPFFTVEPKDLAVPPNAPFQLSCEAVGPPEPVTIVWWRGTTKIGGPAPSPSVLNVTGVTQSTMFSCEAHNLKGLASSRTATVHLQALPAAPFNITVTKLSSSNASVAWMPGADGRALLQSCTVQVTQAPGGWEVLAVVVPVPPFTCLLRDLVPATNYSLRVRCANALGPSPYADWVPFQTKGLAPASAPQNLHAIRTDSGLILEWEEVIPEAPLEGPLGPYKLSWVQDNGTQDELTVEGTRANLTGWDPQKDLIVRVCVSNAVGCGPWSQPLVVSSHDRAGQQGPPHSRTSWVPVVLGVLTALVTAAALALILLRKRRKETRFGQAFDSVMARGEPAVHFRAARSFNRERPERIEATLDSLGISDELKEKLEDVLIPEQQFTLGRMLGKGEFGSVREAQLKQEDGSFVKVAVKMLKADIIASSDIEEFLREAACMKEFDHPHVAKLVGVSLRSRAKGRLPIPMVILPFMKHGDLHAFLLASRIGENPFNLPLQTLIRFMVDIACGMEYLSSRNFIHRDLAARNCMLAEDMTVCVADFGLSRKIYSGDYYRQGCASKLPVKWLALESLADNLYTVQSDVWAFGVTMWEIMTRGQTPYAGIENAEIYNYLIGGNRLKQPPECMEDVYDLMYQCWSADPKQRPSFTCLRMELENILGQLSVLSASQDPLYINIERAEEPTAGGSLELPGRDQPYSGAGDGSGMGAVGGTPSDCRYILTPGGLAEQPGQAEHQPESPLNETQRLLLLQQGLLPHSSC
The experiment in a line: HotSpot Kinase Assay, TYRO3/SKY.

For a further assay, the target named is KDR/VEGFR2 (Homo sapiens, UniProt P35968). Briefly: HotSpot Kinase Assay, KDR/VEGFR2.

As usually defined, the IC50 is the concentration needed to halve the response being measured. Read a low IC50 as higher potency.

Chain of PLK4/SAK (O00444 whole entry): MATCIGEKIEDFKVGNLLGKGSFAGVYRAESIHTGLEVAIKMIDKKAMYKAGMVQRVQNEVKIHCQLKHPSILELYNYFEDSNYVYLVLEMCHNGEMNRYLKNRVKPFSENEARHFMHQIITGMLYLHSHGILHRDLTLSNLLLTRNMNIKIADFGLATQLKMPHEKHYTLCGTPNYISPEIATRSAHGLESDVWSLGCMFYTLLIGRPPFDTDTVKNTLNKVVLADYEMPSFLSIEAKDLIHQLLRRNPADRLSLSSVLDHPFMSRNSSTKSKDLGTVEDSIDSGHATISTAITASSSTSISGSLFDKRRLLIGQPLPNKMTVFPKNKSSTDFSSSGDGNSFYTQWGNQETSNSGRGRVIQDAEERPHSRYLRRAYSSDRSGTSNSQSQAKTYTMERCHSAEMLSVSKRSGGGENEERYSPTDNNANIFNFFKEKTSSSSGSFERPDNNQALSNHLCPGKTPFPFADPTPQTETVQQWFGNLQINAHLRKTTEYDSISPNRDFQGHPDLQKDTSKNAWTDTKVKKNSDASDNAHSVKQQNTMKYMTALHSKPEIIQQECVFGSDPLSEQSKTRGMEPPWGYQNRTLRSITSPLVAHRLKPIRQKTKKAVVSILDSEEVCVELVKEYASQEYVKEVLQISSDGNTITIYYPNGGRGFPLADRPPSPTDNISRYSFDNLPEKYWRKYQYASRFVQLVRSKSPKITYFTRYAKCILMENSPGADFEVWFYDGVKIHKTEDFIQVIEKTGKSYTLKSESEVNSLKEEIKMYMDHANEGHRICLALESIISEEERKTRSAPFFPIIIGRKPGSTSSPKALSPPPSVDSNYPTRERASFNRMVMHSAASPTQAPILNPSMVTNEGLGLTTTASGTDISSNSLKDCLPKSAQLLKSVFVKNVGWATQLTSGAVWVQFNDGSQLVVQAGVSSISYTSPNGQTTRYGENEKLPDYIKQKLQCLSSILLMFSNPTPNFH
Procedure for BRK: (§1) Specifically, for each reaction, kinase and substrate were mixed in a pH 7.5 buffer containing 20 mM HEPES, 10 mM MgCl2, 1 mM EGTA [Ethylene glycol-bis(2-aminoethylether)-N,N,N′,N′-tetraacetic acid], 0.02% Brij35, 0.02 mg/mL BSA (Bovine Serum Albumin), 0.1 mM Na3VO4, 2 mM DTT, and 1% DMSO. Compounds were then added to each reaction mixture. After a 20-min incubation, ATP (Sigma-Aldrich) and [γ-^33P] ATP (PerkinElmer) were added at a final total concentration of 100 μM. Reactions were carried out at room temperature for 2 hours and spotted onto P81 ion exchange cellulose chromatography paper (Whatman). […] The percent remaining kinase activity relative to a vehicle-containing (DMSO) kinase reaction was calculated for each kinase/inhibitor pair. […] IC50 values were calculated using Prism 5 (GraphPad).
Procedure for EPHA3: as §1
Procedure for EPHA4: as §1
Procedure for EPHB1: as §1
Procedure for EPHB2: as §1
Procedure for FLT1: as §1
Procedure for FLT4: as §1
Procedure for HPK4: as §1
Procedure for PLK4/SAK: as §1
Procedure for TIE2/TEK: as §1
Procedure for TRKA: as §1
Procedure for TYRO3/SKY: as §1
Procedure for c-MET: as §1

As for `COc1cc2c(Oc3ccc(NC(=O)C4(C(=O)Nc5ccc(F)cc5)CC4)cc3)ccnc2cc1OC(=O)N1CCN(C)CC1` [Compound 1-10], the IC50 is under 100 nM on AXL; under 100 nM at BRK; under 100 nM at HPK4; under 100 nM against TRKA; 100 to 1000 nM against FLT1; 100 to 1000 nM at FLT4. Besides, the IC50 against c-MET was under 100 nM; against EPHA3 it was 100 to 1000 nM; at EPHB2, 100 to 1000 nM; against EPHA4, 100 to 1000 nM; against EPHB1, 100 to 1000 nM; on TIE2/TEK it was over 1000 nM. Further, the results for the IC50 at PLK4/SAK, against TYRO3/SKY and against KDR/VEGFR2 were over 1000 nM, 100 to 1000 nM and 100 to 1000 nM, respectively.
